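These data come from cells grown in 96-well plates and exposed to compound for 48 hours at five concentrations. TGI: concentration producing complete growth inhibition.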
Tests used:
Test in all cases: NCI-60 cell line screen, 48 h
HCC-2998 colon = tested on: HCC-2998 colon
A498 renal = tested on: A498 renal
RXF 393 renal = tested on: RXF 393 renal
SK-MEL-5 melanoma = tested on: SK-MEL-5 melanoma
K-562 leukemia = tested on: K-562 leukemia
OVCAR-5 ovarian = tested on: OVCAR-5 ovarian
SF-295 CNS = tested on: SF-295 CNS
SF-539 CNS = tested on: SF-539 CNS
NCI-H460 lung = tested on: NCI-H460 lung
A549 NSCLC = tested on: A549 NSCLC
SK-MEL-28 melanoma = tested on: SK-MEL-28 melanoma
HT29 colon = tested on: HT29 colon
SNB-78 CNS = tested on: SNB-78 CNS
NCI-H522 lung = tested on: NCI-H522 lung
786-0 renal = tested on: 786-0 renal
IGROV1 ovarian = tested on: IGROV1 ovarian
HOP-18 NSCLC = tested on: HOP-18 NSCLC
DLD-1 colon = tested on: DLD-1 colon
M14 melanoma = tested on: M14 melanoma
HOP-62 NSCLC = tested on: HOP-62 NSCLC
CCRF-CEM leukemia = tested on: CCRF-CEM leukemia
SF-268 CNS = tested on: SF-268 CNS
SK-MEL-2 melanoma = tested on: SK-MEL-2 melanoma
UO-31 renal = tested on: UO-31 renal
HCT-116 colon = tested on: HCT-116 colon
HCT-15 colon = tested on: HCT-15 colon
MOLT-4 leukemia = tested on: MOLT-4 leukemia
TK-10 renal = tested on: TK-10 renal
UACC-257 melanoma = tested on: UACC-257 melanoma
KM12 colon = tested on: KM12 colon
NCI-H226 lung = tested on: NCI-H226 lung
OVCAR-3 ovarian = tested on: OVCAR-3 ovarian
HL-60(TB) leukemia = tested on: HL-60(TB) leukemia
HOP-92 NSCLC = tested on: HOP-92 NSCLC
UACC-62 melanoma = tested on: UACC-62 melanoma
SR leukemia = tested on: SR leukemia
COLO 205 colon = tested on: COLO 205 colon
ACHN renal = tested on: ACHN renal
M19-MEL melanoma = tested on: M19-MEL melanoma
KM20L2 colon = tested on: KM20L2 colon
SNB-19 CNS = tested on: SNB-19 CNS
U251 CNS = tested on: U251 CNS
LXFL 529 NSCLC = tested on: LXFL 529 NSCLC
SW-620 colon = tested on: SW-620 colon
SNB-75 CNS = tested on: SNB-75 CNS
SK-OV-3 ovarian = tested on: SK-OV-3 ovarian
RPMI-8226 leukemia = tested on: RPMI-8226 leukemia
LOX IMVI melanoma = tested on: LOX IMVI melanoma
SN12C renal = tested on: SN12C renal
OVCAR-4 ovarian = tested on: OVCAR-4 ovarian
EKVX NSCLC = tested on: EKVX NSCLC
CAKI-1 renal = tested on: CAKI-1 renal
DMS 114 small cell lung = tested on: DMS 114 small cell lung
MALME-3M melanoma = tested on: MALME-3M melanoma
RXF-631 renal = tested on: RXF-631 renal
NCI-H23 lung = tested on: NCI-H23 lung
XF 498 CNS = tested on: XF 498 CNS
OVCAR-8 ovarian = tested on: OVCAR-8 ovarian
DMS 273 small cell lung = tested on: DMS 273 small cell lung

In the case of `COc1cc2c(cc1OC)C1[C@@H](c3ccccc3)OCN1CC2` (stereo partly drawn), the TGI (HCC-2998 colon) is reported as over 100 µM, the TGI (A498 renal) is reported as over 100 µM and the TGI (RXF 393 renal) is reported as over 100 µM. The TGI (SK-MEL-5 melanoma) was over 100 µM, the TGI (K-562 leukemia) was over 63.1 µM and the TGI (OVCAR-5 ovarian) was over 100 µM. The TGI (SF-295 CNS) was over 100 µM, the TGI (SF-539 CNS) was over 100 µM and the TGI (NCI-H460 lung) was over 100 µM. For the same compound, the TGI (A549 NSCLC) was over 100 µM, the TGI (SK-MEL-28 melanoma) was over 100 µM and the TGI (HT29 colon) was over 100 µM. It also gave a TGI (SNB-78 CNS) of over 100 µM, a TGI (NCI-H522 lung) of over 100 µM and a TGI (786-0 renal) of over 100 µM. It also gave a TGI (IGROV1 ovarian) of over 100 µM, a TGI (HOP-18 NSCLC) of over 100 µM and a TGI (DLD-1 colon) of over 100 µM. For the same compound, the TGI (M14 melanoma) was over 100 µM, the TGI (HOP-62 NSCLC) was over 100 µM and the TGI (CCRF-CEM leukemia) was over 100 µM. For the same compound, the TGI (SF-268 CNS) was over 100 µM, the TGI (SK-MEL-2 melanoma) was over 100 µM and the TGI (UO-31 renal) was over 100 µM. It also gave a TGI (HCT-116 colon) of over 100 µM, a TGI (HCT-15 colon) of over 100 µM and a TGI (MOLT-4 leukemia) of over 100 µM. For the same compound, the TGI (TK-10 renal) was over 100 µM, the TGI (UACC-257 melanoma) was over 100 µM and the TGI (KM12 colon) was over 100 µM. For the same compound, the TGI (NCI-H226 lung) was over 100 µM, the TGI (OVCAR-3 ovarian) was over 100 µM and the TGI (HL-60(TB) leukemia) was over 89.8 µM. For the same compound, the TGI (HOP-92 NSCLC) was over 100 µM, the TGI (UACC-62 melanoma) was over 100 µM and the TGI (SR leukemia) was over 100 µM. For the same compound, the TGI (COLO 205 colon) was over 100 µM, the TGI (ACHN renal) was over 100 µM and the TGI (M19-MEL melanoma) was over 100 µM. It also gave a TGI (KM20L2 colon) of over 100 µM, a TGI (SNB-19 CNS) of over 100 µM and a TGI (U251 CNS) of over 100 µM. For the same compound, the TGI (LXFL 529 NSCLC) was over 100 µM, the TGI (SW-620 colon) was over 100 µM and the TGI (SNB-75 CNS) was over 100 µM. For the same compound, the TGI (SK-OV-3 ovarian) was over 100 µM, the TGI (RPMI-8226 leukemia) was 89.9 µM and the TGI (LOX IMVI melanoma) was over 100 µM. It also gave a TGI (SN12C renal) of over 100 µM, a TGI (OVCAR-4 ovarian) of over 100 µM and a TGI (EKVX NSCLC) of over 100 µM. It also gave a TGI (CAKI-1 renal) of over 100 µM, a TGI (DMS 114 small cell lung) of over 100 µM and a TGI (MALME-3M melanoma) of over 100 µM. It also gave a TGI (RXF-631 renal) of over 100 µM, a TGI (NCI-H23 lung) of over 100 µM and a TGI (XF 498 CNS) of over 100 µM. The TGI (OVCAR-8 ovarian) was over 100 µM and the TGI (DMS 273 small cell lung) was over 100 µM.
For `COc1cc(OC)c2c(c1)C(=O)C(CC1(C)OCCCO1)=CC2=O`, the TGI (HCC-2998 colon) was 32.2 µM, the TGI (A498 renal) was 32.3 µM and the TGI (RXF 393 renal) was 10.4 µM. The TGI (SK-MEL-5 melanoma) was 20.9 µM, the TGI (K-562 leukemia) was over 69.7 µM and the TGI (OVCAR-5 ovarian) was 30.6 µM. It also gave a TGI (SF-295 CNS) of 27.8 µM, a TGI (SF-539 CNS) of 25.6 µM and a TGI (NCI-H460 lung) of 34.7 µM. It also gave a TGI (A549 NSCLC) of 34.4 µM, a TGI (SK-MEL-28 melanoma) of 23.8 µM and a TGI (HT29 colon) of 28.9 µM. It also gave a TGI (SNB-78 CNS) of 26.6 µM, a TGI (NCI-H522 lung) of 10.6 µM and a TGI (786-0 renal) of 21.5 µM. It also gave a TGI (IGROV1 ovarian) of 32.2 µM, a TGI (HOP-18 NSCLC) of 25.7 µM and a TGI (DLD-1 colon) of 17.4 µM. For the same compound, the TGI (M14 melanoma) was 26 µM, the TGI (HOP-62 NSCLC) was 33.4 µM and the TGI (CCRF-CEM leukemia) was 15.4 µM. The TGI (SF-268 CNS) was 26.9 µM, the TGI (SK-MEL-2 melanoma) was 30.1 µM and the TGI (UO-31 renal) was 24.1 µM. The TGI (HCT-116 colon) was 17.7 µM, the TGI (HCT-15 colon) was 16.3 µM and the TGI (MOLT-4 leukemia) was 30.6 µM. The TGI (TK-10 renal) was 25.1 µM, the TGI (UACC-257 melanoma) was 25.9 µM and the TGI (KM12 colon) was 28.5 µM. It also gave a TGI (NCI-H226 lung) of 36.3 µM, a TGI (OVCAR-3 ovarian) of 21.4 µM and a TGI (HL-60(TB) leukemia) of 7.88 µM. It also gave a TGI (HOP-92 NSCLC) of 7.73 µM, a TGI (UACC-62 melanoma) of 16.2 µM and a TGI (SR leukemia) of 7.2 µM. For the same compound, the TGI (COLO 205 colon) was 27.5 µM, the TGI (ACHN renal) was 21.6 µM and the TGI (M19-MEL melanoma) was 13.9 µM. The TGI (KM20L2 colon) was 27.7 µM, the TGI (SNB-19 CNS) was 32.4 µM and the TGI (U251 CNS) was 31.6 µM. For the same compound, the TGI (LXFL 529 NSCLC) was 18.7 µM, the TGI (SW-620 colon) was 20.3 µM and the TGI (SNB-75 CNS) was 25.3 µM. The TGI (SK-OV-3 ovarian) was 34.2 µM, the TGI (RPMI-8226 leukemia) was 23.3 µM and the TGI (LOX IMVI melanoma) was 12.8 µM. It also gave a TGI (SN12C renal) of 27.2 µM, a TGI (OVCAR-4 ovarian) of 19.7 µM and a TGI (EKVX NSCLC) of 28.6 µM. For the same compound, the TGI (CAKI-1 renal) was 18.8 µM, the TGI (DMS 114 small cell lung) was 15.8 µM and the TGI (MALME-3M melanoma) was 20.5 µM. The TGI (RXF-631 renal) was 44.5 µM, the TGI (NCI-H23 lung) was 27 µM and the TGI (XF 498 CNS) was 18.4 µM. The TGI (OVCAR-8 ovarian) was 22.5 µM and the TGI (DMS 273 small cell lung) was 22.5 µM.
